Values of other authors as cited in patent US12453729B2, “Pharmaceutical formulations” (AstraZeneca AB, priority 2020, dated 2025).

Key:
ERα receptor [1] = biological target: T1, ERα receptor (Homo sapiens, UniProt P03372); settings: in vitro breast cancer cell line experiments
T1 sequence (P03372 1-595): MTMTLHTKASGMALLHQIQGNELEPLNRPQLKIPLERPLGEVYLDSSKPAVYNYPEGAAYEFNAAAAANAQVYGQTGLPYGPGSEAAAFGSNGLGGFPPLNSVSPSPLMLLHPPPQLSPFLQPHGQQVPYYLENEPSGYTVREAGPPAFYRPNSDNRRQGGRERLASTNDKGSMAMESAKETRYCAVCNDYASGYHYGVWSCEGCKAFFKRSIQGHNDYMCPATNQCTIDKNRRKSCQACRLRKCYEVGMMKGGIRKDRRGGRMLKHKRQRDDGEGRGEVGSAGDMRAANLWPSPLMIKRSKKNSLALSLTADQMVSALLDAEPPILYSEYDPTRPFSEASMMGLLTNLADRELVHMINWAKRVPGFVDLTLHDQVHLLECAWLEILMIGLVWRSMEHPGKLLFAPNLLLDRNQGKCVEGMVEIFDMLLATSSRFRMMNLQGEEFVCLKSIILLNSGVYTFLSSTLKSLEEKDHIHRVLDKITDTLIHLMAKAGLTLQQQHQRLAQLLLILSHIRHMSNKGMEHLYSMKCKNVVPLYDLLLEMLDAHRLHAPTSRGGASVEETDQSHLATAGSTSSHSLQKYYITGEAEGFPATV

ERα receptor [2] = biological target: T1, ERα receptor; settings: patient samples; 500 mg monthly dose

down-regulation of the receptor (ERα receptor [1]): complete down-regulation | turnover of the receptor (ERα receptor [2]): less than 50%
SMILES: C[C@]12CC[C@@H]3c4ccc(O)cc4C[C@@H](CCCCCCCCC[S+]([O-])CCCC(F)(F)C(F)(F)F)[C@H]3[C@@H]1CC[C@@H]2O (some centres unmarked) [Fulvestrant]
